The pKa sets of Baltruschat and Czodrowski (2020)
Where a SMILES comes first, the peptide text is derived from it.

Conditions: acidic group

Compound | pKa
CC(C)C1CC(CC(=O)O)[NH2+]C1C(=O)O (configuration not stated) | 2.1
COc1ccc(/C=C\C(=O)O)cc1 | 4.03
CCCCCOc1ccc(O)cc1 | 10.2
C=CC(CC(C)(C)C)c1ccc2cccnc2c1O (configuration not stated) | 9.8
CCOC(=O)COc1ccc(Oc2ccc(O)c(C[NH3+])c2)c(Cl)c1Cl | 8.55
[NH3+]c1ccccc1O[C@H]1O[C@@H](C(=O)O)[C@H](O)[C@@H](O)[C@@H]1O | 3.3
Oc1ccc(O)[nH+]n1 | -2.2
CCCCCCCCCCCCCCC(=O)O | 5.01
[NH3+]CCC#CC#CCCC(=O)O | 4.12
CC(C)(C(N)=O)S(N)(=O)=O | 9.92
CCCCCCCCc1c(-c2ccccc2)nn(-c2ccccc2)c1O | 7.5
[NH3+]C(Cc1ccccc1)C(=O)O (configuration not stated) | 2.3
Oc1cccc(O)c1O | 8.97
Cc1ccc(C(=O)O)c(I)c1 | 3.2
O=C1CSC(=S)N1 | 6.48
Cn1c[nH+]c(C(=O)O)c1C(=O)O | -0.88
O=C(O)CCC(=O)c1cccc2ccccc12 | 4.48
O=S(O)c1ccccc1 | 1.72
[NH3+]CCCCCCCCCCCC(=O)O | 4.65
Cc1cnc(NS(=O)(=O)c2ccc(N)cc2)nc1C | 6
CCCC(C)C1(CC)C(=O)N=C([O-])NC1=O (configuration not stated) | 12.4
O=C([O-])c1cc([N+](=O)[O-])ccc1O | 10.1
CCOc1ccccc1/C=C/C(=O)O | 4.68
C[N+](C)(C)CCCc1ccc(O)cc1 | 9.8

Compound | pKa
COc1cc(C[NH+](C)C)c(O)c(C[NH+](C)C)c1 | 6.33
CN1CC(O)C2=C/C(=N\O)C(=O)C=C21 (configuration not stated) | 8.6
O=C([O-])C[NH+](CC(=O)[O-])Cc1cc([N+](=O)[O-])ccc1O | 6.18
CCOC(=O)C(=NO)C(=O)OCC | 5.48
CCCCOc1cccc(C(=O)O)c1 | 4.25
N#Cc1ccc(O)cc1 | 7.89
O=Cc1ccc(O)cc1Cl | 6.6
CCOc1cc(C)nc(-n2nc(C)cc2O)n1 | 7.35
[NH3+]c1ccc(O[C@H]2O[C@@H](C(=O)O)[C@H](O)[C@@H](O)[C@@H]2O)cc1 | 3.1
[O-]c1cc([O-])cc(O)c1 | 14.1
COc1ccc(O)c(C)c1 | 10.2
C=C(C)C(=O)O | 4.66
C[n+]1cc(S)cc2ccccc21 | 2.4
Cc1nn(-c2ccccc2)c(O)c1-c1ccccc1 | 11.9
Nc1ccc(C(=O)O)cc1 | 4.84
Oc1ccc2cn[nH]c2c1 | 9.35
C[NH+](C)CCCCCCCCCNC(=O)/C=N/O | 8.99
Cc1ccc(S(=O)(=O)NCC[NH+](CC(=O)[O-])CC(=O)[O-])cc1 | 7.86
CNc1ncnc2[nH]ncc12 | 10.6
Cc1ccc(C(=O)c2ccccc2C(=O)O)cc1 | 3.64
CC(C)[C@H]1C[NH2+][C@H](C(=O)[O-])[C@H]1CC(=O)O | 4.23
O=[N+]([O-])c1ccc(S(=O)(=O)Nc2ccccc2)cc1 | 7.41
S=C(NCc1ccccc1)c1ccccc1 | 12.2
O=Cc1ccc(O)c(O)c1 | 7.45

Compound | pKa
Cc1ccc(O)c(Cc2cc(C)cc([N+](=O)[O-])c2[O-])c1 | 11.7
CC(C)C1C(=O)c2ccccc2C1=O | 7.4
C[N+](C)(C)Cc1cccc(O)c1O | 8.1
C=C(/C=C(/C)O)C(C)(C)C | 11
Oc1ccc2c(c1)ncc1ccccc12 | 8.79
C[NH2+]C(C)C(=O)O (configuration not stated) | 2.22
CCCCNC(=O)NS(=O)(=O)c1ccc(C)cc1 | 5.3
O=C(O)c1ccc([N+](=O)[O-])cc1 | 3.43
COc1nc([N+](=O)[O-])n[nH]1 | 5.35
CCC(=O)/C=N/O | 8.37
O=S(=O)([O-])c1ccc2c(/N=N/c3ccc4[nH]cnc4c3)c(O)c(S(=O)(=O)[O-])cc2c1 | 9.8
C=CC(O)OCC(C)O (configuration not stated) | 5.5
c1ccc(-c2c[nH]c(-c3ccccc3)n2)cc1 | 12.6
Cc1ccc(O)c(C(C)C)c1 | 10.7
C[NH+](C)Cc1cc(-c2ccccc2)cc(C[NH+](C)C)c1O | 5.65
Cc1cccc(/C=N/O)n1 | 10
[NH3+]Cc1ccc(F)c(O)c1 | 8
C#CCCC(=O)O | 4.2
O=S(=O)(Nc1ncccn1)c1ccccc1 | 5.91
OB(O)Cc1ccccc1 | 9.12
O=C1CNC(=O)[C@H](Cc2ccc(O)cc2)N1 | 9.47
O=C1COC(=O)C1 | 3.76
Cc1nnnn1CC(=O)O | 2.16

Same assay, conditions: basic group

Compound | pKa
CN(C)c1ccc(/C=N/c2ncc3nc[nH]c3n2)cc1 | 5.26
Cc1ccccc1CN | 9.23
C=CC(CC(C)(C)C)c1ccc2cccnc2c1O (configuration not stated) | 4.94
Cc1cccc(C)c1NC(=O)CNCC(C)C | 7.83
Cc1[nH]c(C)c(C)c1C | 3.77
C[n+]1ccc(N)nc1[O-] | 4.52
CC(C)CCSC(=N)c1ccccc1 | 8.43
C[NH+](C)Cc1cnc2ccc(-c3ccccc3)nn12 | 2.99
OC(CN1CCCC1)CN1CCCC1 | 9.73
CCC(=O)C(CC(C)N1CCOCC1)(c1ccccc1)c1ccccc1 (configuration not stated) | 6.89
[O-]c1cc2ccccc2cc1C1=NCCN1 | 10.8
CC(C)CCN | 10.9
CCN(CC)CCCCNc1cc[nH+]c2ccccc12 | 8.94
C[NH+](C)CCNc1c2ccccc2nc2cccc([N+](=O)[O-])c12 | 4.9
Cc1ccc2c(c1)CCN2 | 5
CC(=O)N(C)c1ccccn1 | 2.01
N#CCCNN | 5.91
CCC(C)Nc1ccccc1 (configuration not stated) | 5.47
CCC(C)N (configuration not stated) | 10.6
NC(=S)C(N)Cc1ccccc1 (configuration not stated) | 7.15
c1ccc(NCC[NH+]2CCCCC2)cc1 | 2.8
CC1=C(CC(C)NCC(O)c2ccc(Cl)cc2)CCC1(C)C (configuration not stated) | 8.55
Cc1cc(N)ccc1C[NH3+] | 4.26
CN(C)c1ncc([N+](=O)[O-])s1 | 0.48
CC(C)(C)N1CCCC(=O)C(O)CCC1 (configuration not stated) | 7.6
CCCNCCNCCC | 10.3

Compound | pKa
CCOC(=O)C1CC2CCN1CC2 (configuration not stated) | 8.8
CCCn1cncn1 | 2.36
Cn1cc(N)cc1C(=O)[O-] | 7
CCCCN1CCCC1C (configuration not stated) | 10.7
Nc1ccc2cncnc2c1 | 4.6
C=CCNc1ccccc1 | 4.17
CNCCCc1ccccc1 | 10.6
c1ccc(-c2[nH]cc[nH+]2)nc1 | 0.6
CC(=O)c1ccc([O-])c(CN(C)C)c1 | 10
Cc1ccncn1 | 1.99
O=[N+]([O-])c1ccc(Nc2ccccc2)cc1 | -2.5
Cc1cc2nccc(NCCC[NH+](C)C)c2cc1[N+](=O)[O-] | 7.38
C[Si](C)(C)CCN | 11
CC(C)NCCCCCCNC(C)C | 11.2
COc1ccc(N)cn1 | 4.24
COc1ccc2nccc(C(O)C3CCCCN3)c2c1 (configuration not stated) | 9.3
NC(=S)C([NH3+])Cc1ccccc1 (configuration not stated) | -8.63
C[C@H](N)C(=O)N[C@@H](Cc1c[nH]cn1)C(=O)[O-] (H-Ala-His-OH) | 8.08
Nc1ccc(C(=O)O)cc1 | 2.41
COc1nc(C)cc([O-])n1 | 8.4
[O-]c1ncnc2cccnc12 | 8.95
CC(C)NNC1CCN(C(C)C)CC1 | 9.55
C[Si](C)(C)OC1CN(C2CCCCC2)C1 | 9.02
Nc1ccnc(-c2ccccn2)c1 | 8.1
CCCCCCCCCCCCN(CC(C)O)CC(O)CC (configuration not stated) | 6.2
CC[NH+](CC)CCCNc1ccnc2ccccc12 | 8.65

Compound | pKa
CN(C)CCSCCN(C)C | 9.1
NCCCNCCCN | 10.7
CCN(C)N(C)CC | 6.8
CCn1ccnc1C | 8.09
CCc1cccc(/N=N/c2ccc(N(C)C)cc2)c1 | 2.16
CCC(O)CN(CC)CC(O)CC (configuration not stated) | 9.2
CNCC(C)c1ccccc1 (configuration not stated) | 9.87
CNc1ncnc2[nH]ncc12 | 4.53
Cc1cc(N)cc[n+]1[O-] | 4.1
N#CC(N)c1ccccc1 (configuration not stated) | 4.4
CCCCCCCCCCCCCCCCN(CC(O)CC)CC(O)CC (configuration not stated) | 5.6
Cc1c(Br)cc(N)cc1Br | 2.87
Cc1nc2cc([N+](=O)[O-])ccc2[nH]1 | 5.16
Cn1nnnc1N | 1.82
C=CCN(CC=C)CCCNC(=O)/C=N/[O-] | 9.34
Nn1nnnc1-c1ccccc1 | -0.62
COc1ccc(C[C@H](C)N)cc1OC | 9.6
Cn1c(=O)cnc2ccccc21 | -1.15
CCOC(=O)c1cnc2cc3c(cc2c1OCC)OCO3 | 4.09
C[Si](C)(CCN)O[Si](C)(C)CCN | 10.7
Nc1ccncc1C(=O)[O-] | 9.1
CS(=O)C(C)(C)C (configuration not stated) | -1.71
CC(C)CN(C)c1ccccc1 | 5.2
COC(=O)Cc1ccccc1N | 3.71
COc1c(CN)cc(C)cc1CN | 8.85
CCOC(=O)CCN(C)C | 8.6

Compound | pKa
O=C1CCc2ccccc2C1 | 12.8
CCCCCCCCCCNCCC(=O)[O-] | 10.6
COCc1nc2c(n1C)C(=O)c1ncnc([O-])c1C2=O | 6.17
Oc1ccc2c(c1)ncc1ccccc12 | 4.82
O=C1C[C@H]2OCC(S(=O)(=O)[O-])=C3CN4CC[C@@]56c7ccccc7N1[C@@H]5[C@@H]2[C@@H]3C[C@@H]46 | 7.54
Nc1ccc2c(c1)Cc1c(O)cccc1-2 | 4.63
Cc1ccc(OC(=O)CCCN(C)C)cc1 | 9.53
[NH3+]CCCCc1ccncc1 | 5.81
CC(C)NNC1CC[NH+](C(C)C)CC1 | 6.3
CC(C)(N)CN | 10
[O-]c1ccnc[nH+]1 | 1.77
COc1ccncn1 | 2.5
O=S(=O)(Nc1ncccn1)c1ccccc1 | 0.15
Brc1cnc2c(ccc3cc(Br)cnc32)c1 | 3.9
Nc1ccc2nc(/C=C/c3ccccc3)ccc2c1 | 5.5
O=[N+]([O-])c1ccc2[nH]c(CO)nc2c1 | 2.21
Nc1ccc2c(c1)CCC2 | 5.35
c1nc(Cc2c[nH]c(Cc3nc(Cc4c[nH+]c[nH]4)c[nH]3)[nH+]2)c[nH]1 | 5.43
C1CNCCNCC[NH2+]C1 | 6.75
c1cnc2ccc3ncccc3c2c1 | 4
NCCCc1ccccc1 | 10.3
CCN(CC)c1nc(N)nc(N(CC)CC)n1 | 6.28
O=C1C=CN2C[C@@H]3C[C@@H](CN4CCCC[C@H]34)[C@@H]2C1 | 9.25
